Reference: PMC4673899 (Analytical biochemistry, 2010)
Like-named read-outs stand apart in the source and are kept apart here. Each block holds one molecule with its values, some of them ahead of it. Primed or numbered codes have the meaning given here. Ends that are not written are not given here. Me3 = trimethyl on the lysine side chain; Me3″ = trimethyl (on lysine)

How the values were obtained:
[1] = molecular target: T1, JMJD2E (Homo sapiens, UniProt B2RXH2); conditions: read-out: IC50 (FDH), cited from earlier work
T1 sequence (B2RXH2 1-337): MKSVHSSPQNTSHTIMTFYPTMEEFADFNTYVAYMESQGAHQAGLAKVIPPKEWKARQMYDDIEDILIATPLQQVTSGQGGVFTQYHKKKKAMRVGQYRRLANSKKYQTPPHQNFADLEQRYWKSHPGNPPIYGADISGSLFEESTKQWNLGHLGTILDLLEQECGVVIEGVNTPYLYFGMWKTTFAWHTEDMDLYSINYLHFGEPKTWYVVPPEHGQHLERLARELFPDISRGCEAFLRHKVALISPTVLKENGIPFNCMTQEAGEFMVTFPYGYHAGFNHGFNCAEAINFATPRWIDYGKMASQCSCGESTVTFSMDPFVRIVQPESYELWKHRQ

[2] = molecular target: T1, JMJD2E; conditions: cited from earlier work
[3] = molecular target: T1, JMJD2E; assay: JMJD2E-peptide binding AlphaScreen assay
[4] = molecular target: histone H3K9me3 peptide (Homo sapiens) (UniProt P68431); assay: SPR; conditions: cited from earlier work
[5] = molecular target: T2, N-terminally His-tagged catalytic domain of recombinant JMJD2E (residues 1-337) (UniProt B2RXH2 1-337); assay: AlphaScreen or HTRF
T2 sequence (looked up): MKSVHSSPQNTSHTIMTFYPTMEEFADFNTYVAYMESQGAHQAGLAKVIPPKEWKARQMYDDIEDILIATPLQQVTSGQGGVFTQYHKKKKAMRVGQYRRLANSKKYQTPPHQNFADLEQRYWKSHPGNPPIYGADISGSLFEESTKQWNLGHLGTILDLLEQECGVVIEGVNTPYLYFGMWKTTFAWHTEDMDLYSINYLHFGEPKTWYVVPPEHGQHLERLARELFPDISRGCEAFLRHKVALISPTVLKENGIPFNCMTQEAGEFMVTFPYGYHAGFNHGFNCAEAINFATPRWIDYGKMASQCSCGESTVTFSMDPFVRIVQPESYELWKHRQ

Molecule: O=C(O)c1cccnc1C(=O)O [Compound 2, 2,3-PDCA]
IC50 [1]: > 5000 µM

concentration at signal maximum in binding assay ([3]; JMJD2E pre-incubated with 2OG prior to biotinylated-H3(1-15)K9Me3): 10 to 30 µM
Molecule: O=C(O)CCC(=O)C(=O)O [Compound 2OG, 2-oxoglutarate]
Km [2]: 14 µM

Molecule: O=C(O)c1ccc(C(=O)O)nc1 [Compound 3, 2,5-PDCA]
IC50 ([1]; listed as 2,5-PDCA (3)): 180 µM

Molecule: O=C(O)c1ccc(C(=O)O)nc1 [Compound 4, 3,6-PDCA]
IC50 ([1]; listed as 3,6-PDCA (4)): > 1000 µM

Molecule: H3(6-21)K9Me3: histone H3 residues 6-21 peptide with tri-methyl lysine 9 (TARK(Me3″)STGGKAPRKQLA-NH2)
relative JMJD2E affinity in the binding assay ([3]; competition of unlabelled peptide with biotin-H3(1-15)K9Me3): higher JMJD2E affinity than H3(1-15)K9Me3

Molecule: JMJD2A (from UniProt O75164)
Kd [4]: 1 µM

binding result [5]: binds
B1: H3(6-21)K9Me3 peptide (peptide, UniProt P68431 7-22, looked up)
peptide: TARK(Me3)STGGKAPRKQLA-NH2

IC50 [5]: 1.2 µM
B2: unlabelled H3(1-15)K9Me3 peptide (peptide, UniProt P68431 2-16, looked up)
peptide: ARTKQTARKSTGGKA
modifications: trimethyl-lysine at K9; C-terminal amide
